# “And” between values parts separate entries of the source, which are not always exact repeats. Identical values can stand only once. Inconclusive results and toxic doses are left out.
# Tested on: L1210 leukemia ip in BDF1 mice, survival T/C
# Experiment: NCI In Vivo Anticancer Drug Screen. Data for tumor model L1210 Leukemia (intraperitoneal) in B6D2F1 (BDF1) mice
# Settings: higher = longer survival
# In short: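 Ratio derived from survival: compound-dosed mice over vehicle-dosed mice, all bearing a transplantable tumor.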
# [1] = endpoint: mean survival time, dose: 12.5 mg/kg/injection, schedule: Q01DX009 (ip), vehicle: saline
# [2] = endpoint: mean survival time, dose: 25.0 mg/kg/injection, schedule: Q01DX009 (ip), vehicle: saline
# [3] = endpoint: mean survival time, dose: 25.0 mg/kg/injection, schedule: Q04DX003 (ip), vehicle: saline
smiles,measurement,setting,value
CNC(CNC(CO)CC(C)C)Cc1ccc(OCc2ccccc2)cc1 (centres undefined),T/C,[1],102 % of control
same,T/C,[2],91 % of control
same,T/C,[3],95 % of control
same,T/C,"endpoint: mean survival time, dose: 50.0 mg/kg/injection, schedule: Q01DX009 (ip), vehicle: saline",94 % of control
same,T/C,"endpoint: mean survival time, dose: 50.0 mg/kg/injection, schedule: Q04DX003 (ip), vehicle: saline",95 % of control
same,T/C,"endpoint: mean survival time, dose: 100.0 mg/kg/injection, schedule: Q04DX003 (ip), vehicle: saline",95 % of control
O=C(CCCCC(=O)c1ccc(O)cc1O)c1ccc(O)cc1O,T/C,"endpoint: mean survival time, dose: 100.0 mg/kg/injection, schedule: Q01DX001 (ip), vehicle: other",97 % of control
same,T/C,"endpoint: mean survival time, dose: 100.0 mg/kg/injection, schedule: Q04DX003 (ip), vehicle: other",103 % of control
same,T/C,"endpoint: mean survival time, dose: 200.0 mg/kg/injection, schedule: Q01DX001 (ip), vehicle: other",95 % of control
same,T/C,"endpoint: mean survival time, dose: 200.0 mg/kg/injection, schedule: Q04DX003 (ip), vehicle: other",100 % of control
same,T/C,"endpoint: mean survival time, dose: 400.0 mg/kg/injection, schedule: Q01DX001 (ip), vehicle: other",97 % of control
same,T/C,"endpoint: mean survival time, dose: 400.0 mg/kg/injection, schedule: Q04DX003 (ip), vehicle: other",106 % of control
CCOC(=O)CNC(=O)C1OC(n2cnc3c(N)ncnc32)C(O)C1O (centres undefined),T/C,"endpoint: mean survival time, dose: 6.25 mg/kg/injection, schedule: Q01DX009 (ip), vehicle: saline",105 % of control
same,T/C,"endpoint: mean survival time, dose: 12.5 mg/kg/injection, schedule: Q01DX005 (ip), vehicle: saline",102 % of control
same,T/C,[1],110 % of control
same,T/C,"endpoint: mean survival time, dose: 25.0 mg/kg/injection, schedule: Q01DX005 (ip), vehicle: saline",114 % of control
O=[N+]([O-])c1nncs1,T/C,"endpoint: mean survival time, dose: 6.25 mg/kg/injection, schedule: Q04DX003 (ip), vehicle: saline",104 % of control
same,T/C,"endpoint: mean survival time, dose: 12.5 mg/kg/injection, schedule: Q04DX003 (ip), vehicle: saline",98 % of control
same,T/C,[3],101 % of control
CNNCc1ccc(C(=O)NC(C)C)cc1,T/C,"endpoint: mean survival time, dose: 6.5 mg/kg/injection, schedule: Q01DX009 (ip), vehicle: saline",110 % of control and 112 % of control
same,T/C,"endpoint: mean survival time, dose: 8.0 mg/kg/injection, schedule: Q01DX009 (ip), vehicle: saline",121 % of control
same,T/C,"endpoint: mean survival time, dose: 12.0 mg/kg/injection, schedule: Q04DX002 (ip), vehicle: saline",93 % of control and 91 % of control
same,T/C,"endpoint: mean survival time, dose: 13.0 mg/kg/injection, schedule: Q01DX Z (ip), vehicle: saline",117 % of control
same,T/C,"endpoint: mean survival time, dose: 16.0 mg/kg/injection, schedule: Q01DX009 (oral), vehicle: saline",116 % of control
same,T/C,"endpoint: mean survival time, dose: 16.0 mg/kg/injection, schedule: Q03HX008 (ip), vehicle: saline",106 % of control
same,T/C,"endpoint: mean survival time, dose: 16.0 mg/kg/injection, schedule: Q03HX016 (ip), vehicle: saline",112 % of control
same,T/C,"endpoint: mean survival time, dose: 16.0 mg/kg/injection, schedule: Q03HX016 (oral), vehicle: saline",106 % of control
same,T/C,"endpoint: mean survival time, dose: 19.0 mg/kg/injection, schedule: Q01DX Z (ip), vehicle: saline",117 % of control
same,T/C,"endpoint: mean survival time, dose: 24.0 mg/kg/injection, schedule: Q04DX002 (ip), vehicle: saline",97 % of control
same,T/C,[2],110 % of control and 117 % of control
same,T/C,"endpoint: mean survival time, dose: 25.0 mg/kg/injection, schedule: Q#A X020 (ip), vehicle: saline",151 % of control
same,T/C,"endpoint: mean survival time, dose: 32.0 mg/kg/injection, schedule: Q03HX008 (ip), vehicle: saline",112 % of control
same,T/C,"endpoint: mean survival time, dose: 32.0 mg/kg/injection, schedule: Q03HX016 (ip), vehicle: saline",117 % of control
same,T/C,"endpoint: mean survival time, dose: 37.5 mg/kg/injection, schedule: Q01DX009 (ip), vehicle: saline",120 % of control and 123 % of control
same,T/C,"endpoint: mean survival time, dose: 50.0 mg/kg/injection, schedule: Q#A X020 (ip), vehicle: saline",157 % of control
same,T/C,"endpoint: mean survival time, dose: 62.0 mg/kg/injection, schedule: Q01DX009 (ip), vehicle: saline",155 % of control
same,T/C,"endpoint: mean survival time, dose: 64.0 mg/kg/injection, schedule: Q03HX008 (ip), vehicle: saline",110 % of control
same,T/C,"endpoint: mean survival time, dose: 64.0 mg/kg/injection, schedule: Q03HX024 (ip), vehicle: saline",157 % of control
same,T/C,"endpoint: mean survival time, dose: 100.0 mg/kg/injection, schedule: Q01DX010 (ip), vehicle: saline",151 % of control
same,T/C,"endpoint: mean survival time, dose: 100.0 mg/kg/injection, schedule: Q01DX010 (oral), vehicle: saline",159 % of control
same,T/C,"endpoint: mean survival time, dose: 125.0 mg/kg/injection, schedule: Q01DX009 (ip), vehicle: clinical formulation",158 % of control
same,T/C,"endpoint: mean survival time, dose: 125.0 mg/kg/injection, schedule: Q01DX009 (ip), vehicle: saline",167 % of control
same,T/C,"endpoint: mean survival time, dose: 128.0 mg/kg/injection, schedule: Q01DX001 (ip), vehicle: saline",109 % of control
same,T/C,"endpoint: mean survival time, dose: 128.0 mg/kg/injection, schedule: Q01DX001 (iv), vehicle: saline",104 % of control
same,T/C,"endpoint: mean survival time, dose: 128.0 mg/kg/injection, schedule: Q01DX001 (oral), vehicle: saline",106 % of control
same,T/C,"endpoint: mean survival time, dose: 128.0 mg/kg/injection, schedule: Q01DX009 (oral), vehicle: saline",155 % of control and 164 % of control
same,T/C,"endpoint: mean survival time, dose: 128.0 mg/kg/injection, schedule: Q03HX008 (ip), vehicle: saline",121 % of control
same,T/C,"endpoint: mean survival time, dose: 128.0 mg/kg/injection, schedule: Q04DX003 (ip), vehicle: saline",121 % of control
same,T/C,"endpoint: mean survival time, dose: 128.0 mg/kg/injection, schedule: Q08DX002 (oral), vehicle: saline",106 % of control
same,T/C,"endpoint: mean survival time, dose: 133.0 mg/kg/injection, schedule: Q01DX009 (ip), vehicle: saline",150 % of control
same,T/C,"endpoint: mean survival time, dose: 150.0 mg/kg/injection, schedule: Q01DX009 (ip), vehicle: saline",159 % of control
same,T/C,"endpoint: mean survival time, dose: 250.0 mg/kg/injection, schedule: Q01DX001 (ip), vehicle: saline",112 % of control and 121 % of control
same,T/C,"endpoint: mean survival time, dose: 250.0 mg/kg/injection, schedule: Q01DX009 (ip), vehicle: clinical formulation",184 % of control
same,T/C,"endpoint: mean survival time, dose: 250.0 mg/kg/injection, schedule: Q01DX009 (ip), vehicle: water",188 % of control
same,T/C,"endpoint: mean survival time, dose: 256.0 mg/kg/injection, schedule: Q01DX001 (iv), vehicle: saline",99 % of control
same,T/C,"endpoint: mean survival time, dose: 256.0 mg/kg/injection, schedule: Q01DX001 (oral), vehicle: saline",110 % of control
same,T/C,"endpoint: mean survival time, dose: 256.0 mg/kg/injection, schedule: Q08DX002 (ip), vehicle: saline",104 % of control
same,T/C,"endpoint: mean survival time, dose: 300.0 mg/kg/injection, schedule: Q01DX009 (ip), vehicle: saline",166 % of control
same,T/C,"endpoint: mean survival time, dose: 320.0 mg/kg/injection, schedule: Q01DX010 (oral), vehicle: saline",117 % of control
same,T/C,"endpoint: mean survival time, dose: 400.0 mg/kg/injection, schedule: Q01DX010 (im), vehicle: saline",86 % of control
same,T/C,"endpoint: mean survival time, dose: 400.0 mg/kg/injection, schedule: Q01DX010 (oral), vehicle: saline",116 % of control
same,T/C,"endpoint: mean survival time, dose: 400.0 mg/kg/injection, schedule: Q01DX010 (sc), vehicle: saline",90 % of control
same,T/C,"endpoint: mean survival time, dose: 512.0 mg/kg/injection, schedule: Q04DX003 (ip), vehicle: saline",155 % of control
same,T/C,"endpoint: mean survival time, dose: 512.0 mg/kg/injection, schedule: Q04DX003 (oral), vehicle: saline",151 % of control
same,T/C,"endpoint: mean survival time, dose: 758.0 mg/kg/injection, schedule: Q04DX002 (ip), vehicle: saline",103 % of control
same,T/C,"endpoint: median survival time, dose: 300.0 mg/kg/injection, schedule: Q01DX009 (ip), vehicle: saline",166 % of control and 170 % of control
same,T/C,"endpoint: median survival time, dose: 500.0 mg/kg/injection, schedule: Q01DX009 (ip), vehicle: saline",49 % of control and 54 % of control
CCN(CCP(c1ccccc1)c1ccccc1)CCP(c1ccccc1)c1ccccc1,T/C,"endpoint: mean survival time, dose: 6.25 mg/kg/injection, schedule: Q01DX009 (ip), vehicle: Klucel (hydroxypropylcellulose) (HPC)",120 % of control
same,T/C,"endpoint: mean survival time, dose: 19.0 mg/kg/injection, schedule: Q01DX001 (ip), vehicle: other",120 % of control
same,T/C,"endpoint: mean survival time, dose: 25.0 mg/kg/injection, schedule: Q01DX009 (ip), vehicle: Klucel (hydroxypropylcellulose) (HPC)",122 % of control
same,T/C,"endpoint: mean survival time, dose: 25.0 mg/kg/injection, schedule: Q04DX003 (ip), vehicle: Klucel (hydroxypropylcellulose) (HPC)",106 % of control
same,T/C,"endpoint: mean survival time, dose: 38.0 mg/kg/injection, schedule: Q01DX001 (ip), vehicle: other",112 % of control
same,T/C,"endpoint: mean survival time, dose: 50.0 mg/kg/injection, schedule: Q01DX009 (ip), vehicle: Klucel (hydroxypropylcellulose) (HPC)",100 % of control and 117 % of control
same,T/C,"endpoint: mean survival time, dose: 50.0 mg/kg/injection, schedule: Q04DX003 (ip), vehicle: Klucel (hydroxypropylcellulose) (HPC)",116 % of control
same,T/C,"endpoint: mean survival time, dose: 100.0 mg/kg/injection, schedule: Q01DX009 (ip), vehicle: Klucel (hydroxypropylcellulose) (HPC)",111 % of control
same,T/C,"endpoint: mean survival time, dose: 100.0 mg/kg/injection, schedule: Q04DX003 (ip), vehicle: Klucel (hydroxypropylcellulose) (HPC)",122 % of control
COS(=O)c1ccccc1C(=O)NOCc1ccccc1 (centres undefined),T/C,"endpoint: mean survival time, dose: 50.0 mg/kg/injection, schedule: Q01DX001 (ip), vehicle: Klucel (hydroxypropylcellulose) (HPC)",103 % of control
same,T/C,"endpoint: mean survival time, dose: 100.0 mg/kg/injection, schedule: Q01DX001 (ip), vehicle: Klucel (hydroxypropylcellulose) (HPC)",100 % of control
same,T/C,"endpoint: mean survival time, dose: 200.0 mg/kg/injection, schedule: Q01DX001 (ip), vehicle: Klucel (hydroxypropylcellulose) (HPC)",107 % of control

# Reference: PubChem BioAssay AID248 (DTP/NCI, 2004)
